According to PubChem BioAssay AID1918955 (Molecular Pharmacology Branch, DTP, NCI, 2023):

Test system: NCI/ADR-RES complex spheroid viability
Assay: Anticancer human tumor NCI/ADR-RES cell line growth inhibition;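 also: spheroids exposed to compounds for 7 days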;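 as to viability, T/C: 100% = DMSO vehicle treated spheroids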
Details: for IC50: curve of first compound; for viability, T/C: stronger effect = lower value
Source text: Multicellular complex tumor spheroid response to LSD1 Inhibitor Iadademstat in combination with a variety of drugs and investigational agents in selected tumor cell lines
The current study was undertaken to assess response to LSD1 inhibitors in combination with standard-of-care drugs and investigational agents in solid tumor complex spheroid models as well as in the K-562 leukemia. Complex spheroids include a stromal component modeled by human endothelial cells (HUVEC) and fibroblasts modeled by human mesenchymal stem cells (MSCs). The concentration ranges selected for each drug and investigational agent were based upon clinically achievable concentrations if the clinical Cmax of the agent was known.
Compounds. The drugs and investigational agents used in this study are listed on Table 1. All of the agents used, including staurosporine (NSC755774) and gemcitabine (NSC613327), were obtained from the Developmental Therapeutics Program, NCI. FDA-approved anticancer drugs are available from the NCI at http://dtp.nci.nih.gov/branches/dscb/oncology_drugset_explanation.html. Drugs and investigational agents were >95% pure by proton nuclear magnetic resonance (NMR) and liquid chromatography/mass spectrometry (LC/MS). Stock solutions were prepared at 400x in DMSO, stored at -70 degrees C, and diluted in fresh medium prior to their use. The final concentration of DMSO in cell culture wells never exceeded 0.25% (v/v). The FDA-approved anticancer drug set is available from the Developmental Therapeutics Program at https://dtp.cancer.gov/organization/dscb/obtaining/available_plates.htm. All drugs and investigational agents were tested over a range starting from a high concentration at or near the clinical Cmax and decreasing in half-log increments. If the clinical Cmax for an agent had not been determined, the highest concentration tested was 10 microM.
Cell Lines. The patient-derived cancer cell (PDC) lines: 292921-168-R-J2-PDC, K24384-001-R-PDC, and 521955-158-R2-J5-PDC pancreatic carcinomas, 556581-035-R-J1 ovarian carcinoma, 324938-238-R-J1-PDC, 855422-203-R-J1-PDC and 883617-216-R-J1-PDC urothelial bladder carcinomas, 743489-274-T-PDC renal cell carcinoma, 138582-R-J1 Merkel cell tumor, K60290-347-R-J1 and K57222-313-R-J1-PDC glioblastomas, 653999-131-R-J2-PDC, LG0703-F948-PDC, and 349418-098-R-PDC non-small cell lung carcinomas, 885512-296-R-J2-PDC, 171881-019-R-J1-PDC breast carcinomas and 186277-243-T-J2-PDC and 233499-124-R-J2-PDC colon carcinomas were obtained from the NCI Patient-Derived Models Repository (PDMR, https://pdmr.cancer.gov). The established cell lines NCI/ADR-RES (RRID:CVCL_14520 and OVCAR-5 (RRID:CVCL_1628) ovarian carcinomas, 786-O (RRID:CVCL_1051) and A498 (RRID:CVCL_A498) renal cell carcinoma, NCI-H211 (ATCC, cat. CRL-5824; RRID:CVCL_1529), NCI-H196 (ATCC, cat. CRL-5823, RRID:CVCL_1509), SW 1271 (ATCC, cat. CRL-2177, RRID:CVCL_1716) and NCI-H1876 (ATCC, cat. CRL-5902, RRID:CVCL_1503) small cell lung carcinomas, MDA-MB-231 (RRID:CVCL_0062) and MDA-MB-468 (RRID:CVCL_0419)breast carcinomas (10-12). Pooled donor human umbilical vein endothelial cells (HUVEC, Lonza, cat. CC-2519) and human mesenchymal stem cells (hMSC, Lonza, cat. PT-2501) were purchased from Lonza (Walkersville, MD).
Cell Culture. All cells were maintained in an incubator at 37 degrees C and 5% CO2 with 95% humidity. The PDC lines were cultured according to standard operating procedures established by the NCI PDMR (https://pdmr.cancer.gov). Briefly all PDCs were thawed and cultured in Matrigel-coated flasks prepared with a working solution of 1X Ham's F-12 nutrient mix, without supplementation (Invitrogen, Waltham, MA, cat. 11765054), 100 U/mL penicillin-streptomycin (Invitrogen, cat. 15140122), and 2.5% Matrigel (Corning Inc., Corning, NY, cat. 354248) for the first three passages. […]

[1] = second compound 0.1 µM, first compound 0.000316 µM
[2] = second compound 0.1 µM, first compound 0.001 µM
[3] = second compound 0.1 µM, first compound 0.00316 µM
[4] = second compound 0.1 µM, first compound 0.01 µM
[5] = second compound 0.1 µM, first compound 0.0316 µM
[6] = second compound 0.1 µM, first compound 0.1 µM
[7] = second compound 0.316 µM, first compound 0.000316 µM
[8] = second compound 0.316 µM, first compound 0.001 µM
[9] = second compound 0.316 µM, first compound 0.00316 µM
[10] = second compound 0.316 µM, first compound 0.01 µM
[11] = second compound 0.316 µM, first compound 0.0316 µM
[12] = second compound 0.316 µM, first compound 0.1 µM
[13] = second compound 1 µM, first compound 0.000316 µM
[14] = second compound 1 µM, first compound 0.001 µM
[15] = second compound 1 µM, first compound 0.00316 µM
[16] = second compound 1 µM, first compound 0.01 µM
[17] = second compound 1 µM, first compound 0.0316 µM
[18] = second compound 1 µM, first compound 0.1 µM
[19] = second compound 3.16 µM, first compound 0.000316 µM
[20] = second compound 3.16 µM, first compound 0.001 µM
[21] = second compound 3.16 µM, first compound 0.00316 µM
[22] = second compound 3.16 µM, first compound 0.01 µM
[23] = second compound 3.16 µM, first compound 0.0316 µM
[24] = second compound 3.16 µM, first compound 0.1 µM
[25] = second compound 10 µM, first compound 0.000316 µM
[26] = second compound 10 µM, first compound 0.001 µM
[27] = second compound 10 µM, first compound 0.00316 µM
[28] = second compound 10 µM, first compound 0.01 µM
[29] = second compound 10 µM, first compound 0.0316 µM
[30] = second compound 10 µM, first compound 0.1 µM

Compound	IC50 (second compound 0.1 µM) [nM]	IC50 (second compound 0.316 µM) [nM]	IC50 (second compound 1 µM) [nM]	IC50 (second compound 3.16 µM) [nM]	IC50 (second compound 10 µM) [nM]	viability, T/C [1] [%]	viability, T/C [2] [%]	viability, T/C [3] [%]	viability, T/C [4] [%]	viability, T/C [5] [%]	viability, T/C [6] [%]	viability, T/C [7] [%]	viability, T/C [8] [%]	viability, T/C [9] [%]	viability, T/C [10] [%]	viability, T/C [11] [%]	viability, T/C [12] [%]	viability, T/C [13] [%]	viability, T/C [14] [%]	viability, T/C [15] [%]	also measured
CC(C)CC(NC(=O)C(Cc1ccccc1)NC(=O)c1cnccn1)B(O)O (stereo not given) + NC1CC1c1ccc(-c2cccc(O)c2)cc1	12.2	12.7	14.2	12.2	11.8	110	102	92.2	61	6.87	0.38	103	103	94.6	61.7	6.88	0.32	106	99.4	93.5	viability, T/C [16]: 69%; viability, T/C [17]: 7.3%; viability, T/C [18]: 0.37%; viability, T/C [19]: 97.6%; viability, T/C [20]: 98.8%; viability, T/C [21]: 87%; viability, T/C [22]: 58.2%; viability, T/C [23]: 14.1%; viability, T/C [24]: 0.23%; viability, T/C [25]: 90.5%; viability, T/C [26]: 88.8%; viability, T/C [27]: 75.4%; viability, T/C [28]: 59.6%; viability, T/C [29]: 8.55%; viability, T/C [30]: 0.36%
CC(C)CC(NC(=O)CNC(=O)c1cc(Cl)ccc1Cl)B1OC(=O)CC(CC(=O)O)(C(=O)O)O1 (stereo not given) + NC1CC1c1ccc(-c2cccc(O)c2)cc1	23.6	23.8	25.9	19.5	17.7	101	108	97.9	84.5	38.3	2.37	109	104	102	81.3	39.8	2.3	97.3	93.8	96.2	viability, T/C [16]: 81.3%; viability, T/C [17]: 43.4%; viability, T/C [18]: 3.84%; viability, T/C [19]: 101%; viability, T/C [20]: 94.7%; viability, T/C [21]: 88.9%; viability, T/C [22]: 80.4%; viability, T/C [23]: 28.5%; viability, T/C [24]: 4.76%; viability, T/C [25]: 90.3%; viability, T/C [26]: 88.9%; viability, T/C [27]: 81%; viability, T/C [28]: 64.9%; viability, T/C [29]: 34.9%; viability, T/C [30]: 2.76%
